These results are taken from PubChem BioAssay AID1117347 (Cheminformatics & Chemogenomics Research Group (CCRG), …, 2015).

“And” between values parts separate entries of the source, which are not always exact repeats. Equal entries are not always repeated. The source made the active and inactive calls. No rule for the calls is given here.

The test system of this test is HeLa cell count decrease. In words: decrease in HeLa cell numbers, dose-response curve, cell enumeration, 50% inhibitory concentration (AID 1117347).
For the molecule `Clc1ccc(Nc2nnc(Cc3ccncc3)c3ccccc23)cc1`, the IC50 was > 10000 nM (inactive).
The result for `CCC(=O)c1ccc(O)cc1` reads > 10000 nM (inactive); that for `CSc1ccc2c(c1)C(N1CCN(C)CC1)Cc1ccccc1S2` (stereo not drawn), > 10000 nM (inactive).
Consider `O=c1[nH]cc(F)c(=O)[nH]1`, for which the IC50 was > 10000 nM (inactive).
The result for `CCCCCCCCCCCC(=O)[O][Sn]([CH2]CCC)([CH2]CCC)[O]C(=O)CCCCCCCCCCC` reads > 10000 nM (inactive); that for `O=C(O)CCc1nc2ccccc2[nH]1`, > 10000 nM (inactive).
Consider `Oc1ccc([C@H]2CNCc3c2ccc(O)c3O)cc1O`, for which the IC50 was > 10000 nM (inactive).
Regarding `Fc1ccc(C(OCCN2CCN(CCCc3ccccc3)CC2)c2ccc(F)cc2)cc1`, the IC50 is 3200 nM.
As to `COc1cccc2c1C(=O)c1c(O)c3c(c(O)c1C2=O)C[C@@](O)(C(=O)CO)C[C@@H]3O[C@H]1C[C@H](N)[C@H](O[C@@H]2CCCCO2)[C@H](C)O1`, the IC50 was 51.4 nM.
As for `S=c1nc[nH]c2nc[nH]c12`, the figure is > 10000 nM (inactive); as for `O=C1C2CC=CCC2C(=O)N1SC(Cl)(Cl)Cl` (stereo not drawn), 1780 nM.
As for `Cn1cnc([N+](=O)[O-])c1Sc1ncnc2nc[nH]c12`, the figure is > 10000 nM (inactive); as for `CN1CCC(Nc2ncc3ncnc(Nc4ccc(F)c(Cl)c4)c3n2)CC1`, > 10000 nM (inactive); as for `Nc1nc(Cl)nc2c1ncn2[C@@H]1O[C@H](CO)[C@@H](O)[C@@H]1F`, 5.16 nM.
Take `CCCCCCCCCCCCNCCNCCNCC(=O)O`: the IC50 is > 10000 nM (inactive).
In the case of `Cc1cc(C2CCCCC2)n(O)c(=O)c1`, the IC50 was 569 nM.
For the molecule `CCCCCCCCCCCC[N+](C)(C)Cc1ccccc1`, the IC50 is > 10000 nM (inactive).
As for `Oc1c(I)cc(I)c2cccnc12`, the IC50 was > 10000 nM (inactive).
With `CCOc1ccc2nc3cc(N)ccc3c(N)c2c1`, the IC50 was 2110 nM.
Take `CCc1oc2ccccc2c1C(=O)c1cc(Br)c(O)c(Br)c1`: the IC50 was > 10000 nM (inactive).
As for `CCCOc1ccc2nc(NC(=O)OC)[nH]c2c1`, the figure is 46.7 nM; as for `COc1cc([C@@H]2c3cc4c(cc3[C@H](O)[C@H]3COC(=O)[C@H]23)OCO4)cc(OC)c1OC`, 4.8 nM; as for `Cc1nc2ccccc2n1Cc1ccc(Cl)cc1`, 31.8 nM.
With `CCCSc1ccc2nc(NC(=O)OC)[nH]c2c1`, the IC50 was 37.7 nM.
Turning to `Cc1ccc(S(=O)(=O)NC(=O)NN2CC3CCCC3C2)cc1` (stereo not drawn), the IC50 was > 10000 nM (inactive).
As for `C=C(C)[C@H]1Cc2c(ccc3c2O[C@@H]2COc4cc(OC)c(OC)cc4[C@@H]2C3=O)O1`, the figure is 153 nM; as for `COc1ccc(-c2ccc3cc(C(=O)O)ccc3c2)cc1C12CC3CC(CC(C3)C1)C2`, 5490 nM (inactive).
As for `C[C@@H]1C[C@@H]([C@H](O)CC2CC(=O)NC(=O)C2)C(=O)[C@@H](C)C1`, the figure is 542 nM; as for `O=C(Nc1ccc([N+](=O)[O-])cc1Cl)c1cc(Cl)ccc1O`, 144 nM; as for `OC[C@H]1O[C@@H](n2cnc3c(=S)nc[nH]c32)[C@H](O)[C@@H]1O`, > 10000 nM (inactive).
As to `CCCCCCNC(=O)n1cc(F)c(=O)[nH]c1=O`, the IC50 was > 10000 nM (inactive).
In the case of `COC(=O)Nc1nc2ccc(C(=O)c3ccccc3)cc2[nH]1`, the IC50 was 54.2 nM.
As for `Nc1nc(=S)c2[nH]cnc2[nH]1`, the IC50 was > 10000 nM (inactive).
Take `CCN(CC)CCNc1ccc(CO)c2sc3ccccc3c(=O)c12`: the IC50 is 5920 nM (inactive).
For `Cc1ccccc1C(OCCN(C)C)c1ccccc1` (stereo not drawn), the IC50 was > 10000 nM (inactive).
Turning to `Cc1ccc2c(c1)c1c3n2CCNC3CCC1` (stereo not drawn), the IC50 was > 10000 nM (inactive).
On to `CC(CC1c2ccccc2CCc2ccccc21)CN(C)C` (stereo not drawn), for which the IC50 was > 10000 nM (inactive).
In the case of `CCCCC1C(=O)N(c2ccccc2)N(c2ccc(O)cc2)C1=O` (stereo not drawn), the IC50 is 1660 nM.
Take `O=C1C(I)=CC(=C(c2cc(I)c(O)c(I)c2)c2ccccc2C(=O)O)C=C1I`: the IC50 was > 10000 nM (inactive).
For the molecule `CCc1nc(N)nc(N)c1-c1ccc(Cl)cc1`, the IC50 was > 10000 nM (inactive).
For `NCCNc1ccc(NCCN)c2c1C(=O)c1ccncc1C2=O`, the IC50 was 42.1 nM.
As to `CN(C)CCOC(c1ccccc1)c1ccc(Br)cc1` (stereo not drawn), the IC50 was > 10000 nM (inactive).
As for `O=C1c2c(O)ccc(O)c2C(=O)c2c(NCCNCCO)ccc(NCCNCCO)c21`, the figure is 3.1 nM.
Regarding `Oc1c(I)cc(Cl)c2cccnc12`, the IC50 is > 10000 nM (inactive).
`O=c1c(-c2ccccc2)c1-c1ccccc1`: the IC50 is 1690 nM.
Regarding `C1CN(P2(N3CC3)=NP(N3CC3)(N3CC3)=NP(N3CC3)(N3CC3)=N2)CCO1` (stereo not drawn), the IC50 is > 10000 nM (inactive).
Take `CO[C@@H]1[C@@H](OC)[C@H](C)[C@@](O)(CC(=O)O)O[C@H]1[C@H](C)[C@H]1O[C@@]2(CC[C@@](C)([C@H]3CC[C@@](C)([C@@H]4O[C@@H]([C@H]5O[C@](C)(O)[C@H](C)C[C@@H]5C)C[C@@H]4OC4C[C@H](OC)[C@@H](OC)[C@H](C)O4)O3)O2)C[C@H](O)[C@H]1C` (stereo partly drawn): the IC50 is 2750 nM.
Turning to `O=[N+]([O-])c1ccc(Oc2ccc(N=C=S)cc2)cc1`, the IC50 was > 10000 nM (inactive).
As for `O=C1[C@H]2CCCC[C@H]2C(=O)N1CCCCN1CCN(c2nsc3ccccc23)CC1`, the IC50 is > 10000 nM (inactive).
As for `CCN(CC)CCOc1ccccc1C(=O)CCc1ccccc1`, the IC50 was > 10000 nM (inactive).
As to `CC[C@]1(O)C[C@H]2CN(CCc3c([nH]c4ccccc34)[C@@](C(=O)OC)(c3cc4c(cc3OC)N(C=O)[C@H]3[C@@](O)(C(=O)OC)[C@H](OC(C)=O)[C@]5(CC)C=CCN6CC[C@]43[C@@H]65)C2)C1`, the IC50 was 6.5 nM.
For the molecule `O=[N+]([O-])c1ccc(O)c2ncccc12`, the IC50 is 295 nM.
Take `CN(C)CCC=C1c2ccccc2CCc2ccccc21`: the IC50 was > 10000 nM (inactive).
The result for `Cc1ccc2nc(N)[nH]c(=O)c2c1Sc1ccncc1` reads > 10000 nM (inactive); that for `COc1ccc2cc3[n+](cc2c1OC)CCc1cc2c(cc1-3)OCO2`, > 10000 nM (inactive); that for `Cc1cc2c(C(C)C)c(O)c(O)c(C=O)c2c(O)c1-c1c(C)cc2c(C(C)C)c(O)c(O)c(C=O)c2c1O`, 3710 nM.
The result for `CC(C)=CCNc1ncnc2c1ncn2[C@@H]1O[C@H](CO)[C@@H](O)[C@H]1O` reads 995 nM; that for `Cc1cc(O)c2ccccc2c1O`, 2460 nM.
For the molecule `Nc1nc(=O)n([C@@H]2O[C@H](CO)[C@@H](O)[C@@H]2F)cc1I`, the IC50 was 8500 nM (inactive).
Take `O[C@@H](CNC[C@H](O)[C@H]1CCc2cc(F)ccc2O1)[C@@H]1CCc2cc(F)ccc2O1`: the IC50 is 5560 nM (inactive).
Turning to `C[n+]1c2cc(N)ccc2cc2ccc(N)cc21` (tested in a mixture with another compound), the IC50 is 472 nM.
Take `COc1ccc2cc1Oc1ccc(cc1)C[C@H]1c3c(cc4c(c3Oc3cc5c(cc3OC)CCN(C)[C@@H]5C2)OCO4)CCN1C`: the IC50 is 5540 nM (inactive).
`COC(=O)c1nc(Cl)c(Cl)nc1N`: the IC50 is 408 nM.
With `CCCCC(CC)CN=C(N)NC(N)=NCCCCCCN=C(N)NC(N)=NCC(CC)CCCC` (stereo not drawn), the IC50 is 18.6 nM.
As for `Clc1ccccc1C(c1ccccc1)(c1ccccc1)n1ccnc1`, the figure is > 10000 nM (inactive); as for `CCCCOC(=O)c1ccc(N)cc1`, > 10000 nM (inactive); as for `CCN1/C(=C/C=C/c2sc3ccccc3[n+]2CC)Sc2ccccc21`, 36 nM.
As for `NC(=NCCCCCCN=C(N)/N=C(\N)Nc1ccc(Cl)cc1)/N=C(\N)Nc1ccc(Cl)cc1`, the IC50 is 6710 nM (inactive).
In the case of `CCCCCCCCCCCCCC[N+](C)(C)C`, the IC50 is 3320 nM.
As to `COC(=O)Nc1nc2ccc(C(=O)C3CC3)cc2[nH]1`, the IC50 is 297 nM.
As for `Cc1cc(N)c2ccccc2[n+]1CCCCCCCCCC[n+]1c(C)cc(N)c2ccccc21`, the IC50 was > 10000 nM (inactive).
As to `CCCCCCC[N+](CC)(CC)CCCCc1ccc(Cl)cc1`, the IC50 was > 10000 nM (inactive).
In the case of `COc1cccc2c1C(=O)c1c(O)c3c(c(O)c1C2=O)C[C@@](O)(C(C)=O)C[C@@H]3O[C@H]1C[C@H](N)[C@H](O)[C@H](C)O1`, the IC50 was 8.05 nM.
The result for `C[C@@]12C(=O)OC(=O)[C@]1(C)C1CCC2O1` reads 1010 nM.
In the case of `CC(C)n1c(/C=C/[C@@H](O)C[C@@H](O)CC(=O)O)c(-c2ccc(F)cc2)c2ccccc21`, the IC50 is > 10000 nM (inactive).
`O=C(NOCC1CC1)c1ccc(F)c(F)c1Nc1ccc(I)cc1Cl`: the IC50 is > 10000 nM (inactive).
Regarding `Oc1c(Cl)cc(Cl)cc1Sc1cc(Cl)cc(Cl)c1O`, the IC50 was > 10000 nM (inactive).
Turning to `CC(=O)Oc1ccccc1C(=O)Nc1ncc([N+](=O)[O-])s1`, the IC50 is > 10000 nM (inactive).
`COc1ccc(/C=C/C(=O)c2ccc(OC)cc2OC)cc1`: the IC50 is 708 nM.
In the case of `CC[C@]1(O)C[C@@H]2CN(CCc3c([nH]c4ccccc34)[C@@](C(=O)OC)(c3cc4c(cc3OC)N(C)[C@H]3[C@@](O)(C(=O)OC)[C@H](OC(C)=O)[C@]5(CC)C=CCN6CC[C@]43[C@@H]65)C2)C1`, the IC50 is 5.21 nM and 2.6 nM.
The result for `O=c1[nH]c(=O)n([C@H]2C[C@H](O)[C@@H](CO)O2)cc1I` reads > 10000 nM (inactive); that for `CCCCCCCCCCCCCCCC[n+]1ccccc1`, 404 nM.
Regarding `Cc1ccccc1C(=O)Nc1ccc(C(=O)N2CCCC(N(C)C)c3ccccc32)cc1` (stereo not drawn), the IC50 was 2910 nM.
As for `CC[C@@]1(O)C(=O)OCc2c1cc1n(c2=O)Cc2c-1nc1ccccc1c2/C=N/OC(C)(C)C`, the figure is 2.2 nM; as for `Cc1ccc(CCn2c3c(c4cc(Cl)ccc42)CN(C)CC3)cn1`, > 10000 nM (inactive).
As for `O=C1c2c(O)cccc2Cc2cccc(O)c21`, the figure is > 10000 nM (inactive); as for `COCc1c(C(C)C)nc(C(C)C)c(/C=C/[C@@H](O)C[C@@H](O)CC(=O)O)c1-c1ccc(F)cc1`, > 10000 nM (inactive); as for `COCCOC(=O)C1=C(C)NC(C)=C(C(=O)OC/C=C/c2ccccc2)C1c1cccc([N+](=O)[O-])c1` (stereo not drawn), > 10000 nM (inactive).

For orientation: IC50 means the concentration that inhibits the measured activity by half.
